Assay results taken from patent US7504420B2, “Compounds which inhibit beta-secretase activity and methods of use” (CoMentis, Inc., priority 2005, dated 2009).
Structures can show the parent of a compound that is named as a salt. Where two headings read alike, the source gives them in different places.

Tests used:
memapsin 2 = memapsin 2 (Homo sapiens, UniProt P56817); assay: Inhibition of memapsin 2 catalytic activity (Ki); format: biochemical; settings: memapsin 2, pH 4, 37° C.
Protocol: Potency of compounds were determined by measurement of their inhibition of memapsin 2 catalytic activity toward a fluorescent substrate. […] Briefly, assays were performed at pH 4, 37° C., by pre-incubation of memapsin 2 enzyme with compound for 20 minutes. Activity measure was initiated by addition of a fluorogenic substrate FS-2 (Bachem Americas, Torrance, Calif.). Fluorescent signal increase over time was measured as a rate of hydrolysis of the peptide substrate. […]

[1] = system: Aβ production in Chinese hamster ovary cells that over-express human APP695 with the London and Swedish mutations; assay: Cellular Aβ IC50 determination (Aβ40 sandwich ELISA); settings: 24 h
Protocol: The potency of compounds against memapsin 2 catalytic activity was determined in a cellular assay of Aβ production. […] Compounds are dissolved in DMSO to concentrations near 1 mM, and diluted into culture media to a final concentration near 4 μM (final 0.4% DMSO). Compounds were diluted serially and applied to cells in multi-well plates 48 h after seeding. Incubation was continued in 5% CO2 at 37 degrees C. for 24 h. Aliquots were removed and assayed for Aβ40 content using a sandwich ELISA (BioSource International). Amount of Aβ40 over the range of concentration of compounds, relative to control incubations, were fit to a 4-parameter IC50 model.

[2] = Cricetulus griseus, CHO, read-out: Cell, Aβ40, CHO cells over-expressing human APP695 (London and Swedish mutations), 24 h
[3] = Cricetulus griseus, CHO, read-out: Cell

Chain of memapsin 2 (P56817 46-501): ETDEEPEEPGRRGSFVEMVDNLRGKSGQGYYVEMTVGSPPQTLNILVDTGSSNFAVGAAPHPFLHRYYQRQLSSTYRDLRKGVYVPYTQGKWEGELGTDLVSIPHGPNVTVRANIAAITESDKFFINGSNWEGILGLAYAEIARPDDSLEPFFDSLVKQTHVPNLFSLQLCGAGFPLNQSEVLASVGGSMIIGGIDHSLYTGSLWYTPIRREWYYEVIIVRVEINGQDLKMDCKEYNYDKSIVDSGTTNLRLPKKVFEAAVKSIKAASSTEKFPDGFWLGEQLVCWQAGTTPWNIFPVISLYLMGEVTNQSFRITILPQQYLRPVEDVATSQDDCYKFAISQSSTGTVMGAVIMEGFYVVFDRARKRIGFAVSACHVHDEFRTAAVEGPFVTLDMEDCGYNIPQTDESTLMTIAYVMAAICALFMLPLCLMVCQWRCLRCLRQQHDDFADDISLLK

Row | SMILES | Ki (memapsin 2; read-out: M2K) [nM] | IC50 [1, 2] [nM] | other results
1 | COc1cccc(CNCC(O)C(Cc2cscn2)NC(=O)c2cc(C(=O)NC(C)c3ccccc3)cc(N(C)S(C)(=O)=O)c2)c1 (stereo not shown) [N1-(3-hydroxy-4-(3-methoxybenzylamino)-1-(thiazol-4-yl)butan-2-yl)-5-(N-methylmethylsulfonamido)-N3-(1-phenylethyl)isophthalamide] | < 300 | < 1000 | –
2 | CCOc1cncc(CNCC(O)C(Cc2ccccc2)NC(=O)c2cccc(C(=O)N(C)Cc3nc(C)cs3)c2)c1 (stereo not shown) [N1-(4-((5-ethoxypyridin-3-yl)methylamino)-3-hydroxy-1-phenylbutan-2-yl)-N3-methyl-N3-((4-methylthiazol-2-yl)methyl)isophthalamide] | < 300 | < 1000 | –
3 | CCc1csc(CN(C)C(=O)c2cccc(C(=O)NC(Cc3ccccc3)C(O)CNCc3cccc(OC)c3)c2)n1 (stereo not shown) [N1-((4-ethylthiazol-2-yl)methyl)-N3-(3-hydroxy-4-(3-methoxybenzylamino)-1-phenylbutan-2-yl)-N1-methylisophthalamide] | < 300 | < 1000 | –
4 | COc1cccc(CNCC(O)C(Cc2ccccc2)NC(=O)c2cccc(C(=O)N(Cc3nc(C)cs3)C(C)C)c2)c1 (stereo not shown) [N1-(3-hydroxy-4-(3-methoxybenzylamino)-1-phenylbutan-2-yl)-N3-isopropyl-N3-((4-methylthiazol-2-yl)methyl)isophthalamide] | < 300 | < 1000 | –
5 | C#Cc1cccc(CNCC(O)C(Cc2ccccc2)NC(=O)c2cccc(C(=O)N(C)Cc3nc(C)cs3)c2)c1 (stereo not shown) [N1-(4-(3-ethynylbenzylamino)-3-hydroxy-1-phenylbutan-2-yl)-N3-methyl-N3-((4-methylthiazol-2-yl)methyl)isophthalamide] | < 300 | < 1000 | –
6 | COc1ccc(CCNCC(O)C(Cc2ccccc2)NC(=O)c2cc(C(=O)NC(C)c3ccccc3)cc(N(C)S(C)(=O)=O)c2)cc1O (stereo not shown) [N1-(3-hydroxy-4-(3-hydroxy-4-methoxyphenethylamino)-1-phenylbutan-2-yl)-5-(N-methylmethylsulfonamido)-N3-(1-phenylethyl)isophthalamide] | < 300 | 1000 to 5000 | –
7 | CC(NC(=O)c1cc(C(=O)NC(Cc2ccccc2)C(O)CNCc2ccc3c(c2)OCO3)cc(N(C)S(C)(=O)=O)c1)c1ccccc1 (stereo not shown) [N1-(4-(benzo[d][1,3]dioxol-5-ylmethylamino)-3-hydroxy-1-phenylbutan-2-yl)-5-(N-methylmethylsulfonamido)-N3-(1-phenylethyl)isophthalamide] | < 300 | < 1000 | –
8 | COc1cncc(CNCC(O)C(Cc2ccccc2)NC(=O)c2cccc(C(=O)N(C)Cc3nc(C)cs3)c2)c1 (stereo not shown) [N1-(3-hydroxy-4-((5-methoxypyridin-3-yl)methylamino)-1-phenylbutan-2-yl)-N3-methyl-N3-((4-methylthiazol-2-yl)methyl)isophthalamide] | < 300 | < 1000 | –
9 | COc1cccc(CNCC(O)C(Cc2ccccc2)NC(=O)c2cc(C(=O)NC(C)c3nccs3)cc(N(C)S(C)(=O)=O)c2)c1 (stereo not shown) [N1-(3-hydroxy-4-(3-methoxybenzylamino)-1-phenylbutan-2-yl)-5-(N-methylmethylsulfonamido)-N3-(1-(thiazol-2-yl)ethyl)isophthalamide] | < 300 | < 1000 | –
10 | COc1cccc(CNCC(O)C(Cc2ccccc2)NC(=O)c2cccc(C(=O)N(C)Cc3nc(C)co3)c2)c1 (stereo not shown) [N1-(3-hydroxy-4-(3-methoxybenzylamino)-1-phenylbutan-2-yl)-N3-methyl-N3-((4-methyloxazol-2-yl)methyl)isophthalamide] | – | – | Ki (memapsin 2; M2K): < 300 nM; IC50 [1, 3]: < 1000 nM
11 | Cc1csc(C(C)NCC(O)C(Cc2ccccc2)NC(=O)c2cc(C(=O)NC(C)c3ccccc3)cc(N(C)S(C)(=O)=O)c2)n1 (stereo not shown) [N1-(3-hydroxy-4-(1-(4-methylthiazol-2-yl)ethylamino)-1-phenylbutan-2-yl)-5-(N-methylmethylsulfonamido)-N3-(1-phenylethyl)isophthalamide] | < 300 | < 1000 | –
12 | CC(NC(=O)c1cc(C(=O)NC(Cc2ccccc2)C(O)CNCc2nccn2COCC[Si](C)(C)C)cc(N(C)S(C)(=O)=O)c1)c1ccccc1 (stereo not shown) [N1-(3-hydroxy-1-phenyl-4-((1-((2-(trimethylsilyl)ethoxy)methyl)-1H-imidazol-2-yl)methylamino)butan-2-yl)-5-(N-methylmethylsulfonamido)-N3-(1-phenylethyl)isophthalamide] | 301 to 500 | – | IC50 [1, 3]: > 5000 nM
13 | Cc1csc(CN(C)C(=O)c2cccc(C(=O)NC(Cc3ccccc3)C(O)CNCc3cccc(OC(F)F)c3)c2)n1 (stereo not shown) [N1-(4-(3-(difluoromethoxy)benzylamino)-3-hydroxy-1-phenylbutan-2-yl)-N3-methyl-N3-((4-methylthiazol-2-yl)methyl)isophthalamide] | < 300 | < 1000 | –
14 | COc1cccc(CNCC(O)C(Cc2ccccc2)NC(=O)c2cc(C(=O)N(C)Cc3nc(C)cs3)cc([N+](=O)[O-])c2)c1 (stereo not shown) [N1-(3-hydroxy-4-(3-methoxybenzylamino)-1-phenylbutan-2-yl)-N3-methyl-N3-((4-methylthiazol-2-yl)methyl)-5-nitroisophthalamide] | < 300 | < 1000 | –
15 | COc1ccc(CCNCC(O)C(Cc2ccccc2)NC(=O)c2cccc(C(=O)N(C)Cc3nc(C)cs3)c2)cc1 (stereo not shown) [N1-(3-hydroxy-4-(4-methoxyphenethylamino)-1-phenylbutan-2-yl)-N3-methyl-N3-((4-methylthiazol-2-yl)methyl)isophthalamide] | > 501 | 1000 to 5000 | –
16 | COc1cccc(CNCC(O)C(Cc2ccccc2)NC(=O)c2cc(C(=O)NC(C)c3nc(C)cs3)cc(N(C)S(C)(=O)=O)c2)c1 (stereo not shown) [N1-(3-hydroxy-4-(3-methoxybenzylamino)-1-phenylbutan-2-yl)-5-(N-methylmethylsulfonamido)-N3-(1-(4-methylthiazol-2-yl)ethyl)isophthalamide] | – | < 1000 | –
17 | COc1cccc(CN(CC(O)C(Cc2ccccc2)NC(=O)c2cc(C(=O)NC(C)c3ccccc3)cc(N(C)S(C)(=O)=O)c2)C(=O)CCCC(=O)NCc2cccnc2)c1 (stereo not shown) [N1-(3-hydroxy-4-(N-(3-methoxybenzyl)-5-oxo-5-(pyridin-3-ylmethylamino)pentanamido)-1-phenylbutan-2-yl)-5-(N-methylmethylsulfonamido)-N3-(1-phenylethyl)isophthalamide] | – | > 5000 | –
18 | COc1cccc(CN(CC(O)C(Cc2ccccc2)NC(=O)c2cc(C(=O)NC(C)c3ccccc3)cc(N(C)S(C)(=O)=O)c2)C(=O)CCC(=O)NCc2cccnc2)c1 (stereo not shown) [N1-(3-hydroxy-4-(N-(3-methoxybenzyl)-4-oxo-4-(pyridin-3-ylmethylamino)butanamido)-1-phenylbutan-2-yl)-5-(N-methylmethylsulfonamido)-N3-(1-phenylethyl)isophthalamide] | – | > 5000 | –
19 | CC(C)CN1CCC(CNCC(O)C(Cc2ccccc2)NC(=O)c2cc(C(=O)NC(C)c3ccccc3)cc(N(C)S(C)(=O)=O)c2)CC1 (stereo not shown) [N1-(3-hydroxy-4-((1-isobutylpiperidin-4-yl)methylamino)-1-phenylbutan-2-yl)-5-(N-methylmethylsulfonamido)-N3-(1-phenylethyl)isophthalamide dihydrochloride] | – | > 5000 | –
20 | COc1cccc(CN(CC(O)C(Cc2ccccc2)NC(=O)c2cc(C(=O)NC(C)c3ccccc3)cc(N(C)S(C)(=O)=O)c2)C(=O)CCC(=O)OCC(O)C2OC(=O)C(O)=C2O)c1 (stereo not shown) [2-(3,4-dihydroxy-5-oxo-2,5-dihydrofuran-2-yl)-2-hydroxyethyl 4-((2-hydroxy-3-(3-(N-methylmethylsulfonamido)-5-(1-phenylethylcarbamoyl)benzamido)-4-phenylbutyl)(3-methoxybenzyl)amino)-4-oxobutanoate] | – | 1000 to 5000 | –
21 | COc1cccc(CN(CC(O)C(Cc2ccccc2)NC(=O)c2cc(C(=O)NC(C)c3ccccc3)cc(N(C)S(C)(=O)=O)c2)C(=O)CCCC(=O)NN2CCN(C)CC2)c1 (stereo not shown) [N1-(3-hydroxy-4-(N-(3-methoxybenzyl)-5-(4-methylpiperazin-1-ylamino)-5-oxopentanamido)-1-phenylbutan-2-yl)-5-(N-methylmethylsulfonamido)-N3-(1-phenylethyl)isophthalamide] | – | > 5000 | –
22 | COc1cccc(CN(CC(O)C(Cc2ccccc2)NC(=O)c2cc(C(=O)NC(C)c3ccccc3)cc(N(C)S(C)(=O)=O)c2)C(=O)CN(C)C)c1 (stereo not shown) [N1-(4-(2-(dimethylamino)-N-(3-methoxybenzyl)acetamido)-3-hydroxy-1-phenylbutan-2-yl)-5-(N-methylmethylsulfonamido)-N3-(1-phenylethyl)isophthalamide] | – | 1000 to 5000 | –
23 | COc1cccc(CNCC(O)C(Cc2cc(F)cc(F)c2)NC(=O)c2cc(C(=O)NC(C)c3ccccc3)cc(N(C)S(C)(=O)=O)c2)c1 (stereo not shown) [N1-(1-(3,5-difluorophenyl)-3-hydroxy-4-(3-methoxybenzylamino)butan-2-yl)-5-(N-methylmethylsulfonamido)-N3-(1-phenylethyl)isophthalamide] | – | < 1000 | –
24 | COc1cccc(CN(CC(O)C(Cc2ccccc2)NC(=O)c2cc(C(=O)NC(C)c3ccccc3)cc(N(C)S(C)(=O)=O)c2)C(=O)CCCC(=O)NCCN2CCOCC2)c1 (stereo not shown) [N1-(3-hydroxy-4-(N-(3-methoxybenzyl)-5-(2-morpholinoethylamino)-5-oxopentanamido)-1-phenylbutan-2-yl)-5-(N-methylmethylsulfonamido)-N3-(1-phenylethyl)isophthalamide] | – | > 5000 | –
25 | COc1ccccc1CN1CCC(CNCC(O)C(Cc2ccccc2)NC(=O)c2cc(C(=O)NC(C)c3ccccc3)cc(N(C)S(C)(=O)=O)c2)CC1 (stereo not shown) [N1-(3-hydroxy-4-((1-(2-methoxybenzyl)piperidin-4-yl)methylamino)-1-phenylbutan-2-yl)-5-(N-methylmethylsulfonamido)-N3-(1-phenylethyl)isophthalamide dihydrochloride] | – | – | IC50 ([1]; read-out: Cell, Aβ40, CHO cells over-expressing human APP695 (London and Swedish mutations), dihydrochloride): > 5000 nM
